Source: US20230085307A1, “PYRIDAZINONE COMPOUND AND HERBICIDE” (NISSAN CHEMICAL CORPORATION, priority 2019, published 2023)

Key:
[1] = test system: lambsquarters; assay: Test Example 5: herbicidal effect by foliage application, plastic box (Table 20, symbol O); type: in vivo, lambsquarters (Chenopodium album); conditions: foliage application
In short: (§1)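 Plants were sown into sterilized diluvial soil under about 1.5 cm cover and kept in a greenhouse at 25° C. to 30° C. Fourteen days on, foliage received an even spray of the diluted emulsion. Herbicidal or crop effect was judged three weeks afterwards.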

[2] = test system: wild oat; assay: Test Example 5: herbicidal effect by foliage application, plastic box (Table 20, symbol I); type: in vivo, wild oat (Avena fatua); conditions: foliage application
In short: as §1

[3] = test system: barnyard grass; assay: Test Example 3: herbicidal effect by foliage application, Wagner pot (Table 18, symbol H); type: in vivo, barnyard grass (Echinochloa crus-galli); conditions: amount of applied herbicide 320 g/ha
In short: (§2)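 Plants were sown in alluvial soil held under 0.1–0.5 cm standing water and grown 14 days in a greenhouse at 25–30 °C. An emulsifiable formulation, water-diluted to the set dose, was then sprayed onto the foliage, and effects were scored three weeks later using previously defined criteria.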

[4] = test system: lambsquarters; assay: Test Example 4: herbicidal effect by soil treatment (Table 19, symbol O); type: in vivo, lambsquarters (Chenopodium album); conditions: amount of applied herbicide 320 g/ha
In short: (§3)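 Pre-emergence style soil spray: seeds under ~1.5 cm sterilized diluvial soil received a uniform coat of emulsion diluted to the predetermined herbicide amount. Greenhouse 25–30° C; readout at week three on previously defined criteria.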

[5] = test system: Japanese bulrush; assay: Test Example 1: herbicidal activity, application before weed generation under submerged conditions (Table 16, symbol B); type: in vivo, Japanese bulrush (Schoenoplectus juncoides)
In short: (§4)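 Submerged Wagner pots (alluvial soil, 4 cm water) sown with weed seeds and planted with 2.5-leaf rice seedlings; emulsifiable concentrate diluted in water applied to water surface on sowing day. Held in greenhouse at 25-30 °C; injury scored 0-5 by herbicidal rate after three weeks.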

[6] = test system: blackgrass; assay: Test Example 4: herbicidal effect by soil treatment (Table 19, symbol J); type: in vivo, blackgrass (Alopecurus myosuroides); conditions: amount of applied herbicide 320 g/ha
In short: as §3

[7] = test system: Italian ryegrass; assay: Test Example 4: herbicidal effect by soil treatment (Table 19, symbol K); type: in vivo, Italian ryegrass (Lolium multiflorum); conditions: amount of applied herbicide 320 g/ha
In short: as §3

[8] = test system: windgrass; assay: Test Example 4: herbicidal effect by soil treatment (Table 19, symbol L); type: in vivo, windgrass (Apera spica-venti); conditions: amount of applied herbicide 320 g/ha
In short: as §3

[9] = test system: rice flat sedge; assay: Test Example 3: herbicidal effect by foliage application, Wagner pot (Table 18, symbol E); type: in vivo, rice flat sedge (Cyperus iria); conditions: amount of applied herbicide 320 g/ha
In short: as §2

[10] = test system: southern crabgrass; assay: Test Example 4: herbicidal effect by soil treatment (Table 19, symbol F); type: in vivo, southern crabgrass (Digitaria ciliaris); conditions: amount of applied herbicide 320 g/ha
In short: as §3

[11] = test system: Chinese sprangletop; assay: Test Example 3: herbicidal effect by foliage application, Wagner pot (Table 18, symbol D); type: in vivo, chinese sprangletop (Leptochloa chinensis); conditions: amount of applied herbicide 320 g/ha
In short: as §2

[12] = test system: green foxtail; assay: Test Example 4: herbicidal effect by soil treatment (Table 19, symbol G); type: in vivo, green foxtail (Setaria viridis); conditions: amount of applied herbicide 320 g/ha
In short: as §3

[13] = test system: false cleavers; assay: Test Example 4: herbicidal effect by soil treatment (Table 19, symbol Q); type: in vivo, false cleavers (Galium spurium); conditions: amount of applied herbicide 320 g/ha
In short: as §3

[14] = test system: persian speedwell; assay: Test Example 4: herbicidal effect by soil treatment (Table 19, symbol R); type: in vivo, Persian speedwell (Veronica persica); conditions: amount of applied herbicide 320 g/ha
In short: as §3

[15] = test system: barnyard grass; assay: Test Example 4: herbicidal effect by soil treatment (Table 19, symbol H); type: in vivo, barnyard grass (Echinochloa crus-galli); conditions: amount of applied herbicide 320 g/ha
In short: as §3

[16] = test system: chickweed; assay: Test Example 4: herbicidal effect by soil treatment (Table 19, symbol P); type: in vivo, common chickweed (Stellaria media); conditions: amount of applied herbicide 320 g/ha
In short: as §3

[17] = test system: redroot pigweed; assay: Test Example 5: herbicidal effect by foliage application, plastic box (Table 20, symbol N); type: in vivo, redroot pigweed (Amaranthus retroflexus); conditions: foliage application, AAH 320 g/ha, evaluated three weeks after application
In short: as §1

[18] = test system: persian speedwell; assay: Test Example 5: herbicidal effect by foliage application, plastic box (Table 20, symbol R); type: in vivo, Persian speedwell (Veronica persica); conditions: foliage application
In short: as §1

[19] = test system: Italian ryegrass; assay: Test Example 5: herbicidal effect by foliage application, plastic box (Table 20, symbol K); type: in vivo, Italian ryegrass (Lolium multiflorum); conditions: foliage application
In short: as §1

[20] = test system: velvetleaf; assay: Test Example 4: herbicidal effect by soil treatment (Table 19, symbol M); type: in vivo, velvetleaf (Abutilon theophrasti); conditions: amount of applied herbicide 320 g/ha
In short: as §3

[21] = test system: blackgrass; assay: Test Example 5: herbicidal effect by foliage application, plastic box (Table 20, symbol J); type: in vivo, blackgrass (Alopecurus myosuroides); conditions: foliage application
In short: as §1

[22] = test system: velvetleaf; assay: Test Example 5: herbicidal effect by foliage application, plastic box (Table 20, symbol M); type: in vivo, velvetleaf (Abutilon theophrasti); conditions: foliage application
In short: as §1

[23] = test system: chickweed; assay: Test Example 5: herbicidal effect by foliage application, plastic box (Table 20, symbol P); type: in vivo, common chickweed (Stellaria media); conditions: foliage application, AAH 320 g/ha, evaluated three weeks after application
In short: as §1

[24] = test system: barnyard grass; assay: Test Example 5: herbicidal effect by foliage application, plastic box (Table 20, symbol H); type: in vivo, barnyard grass (Echinochloa crus-galli); conditions: foliage application
In short: as §1

[25] = test system: oval-leafed pondweed; assay: Test Example 1: herbicidal activity, application before weed generation under submerged conditions (Table 16, symbol C); type: in vivo, oval-leafed pondweed (Monochoria vaginalis)
In short: as §4

[26] = test system: wild oat; assay: Test Example 4: herbicidal effect by soil treatment (Table 19, symbol I); type: in vivo, wild oat (Avena fatua); conditions: amount of applied herbicide 320 g/ha
In short: as §3

[27] = test system: redroot pigweed; assay: Test Example 4: herbicidal effect by soil treatment (Table 19, symbol N); type: in vivo, redroot pigweed (Amaranthus retroflexus); conditions: amount of applied herbicide 320 g/ha
In short: as §3

[28] = test system: late watergrass; assay: Test Example 1: herbicidal activity, application before weed generation under submerged conditions (Table 16, symbol A); type: in vivo, late watergrass (Echinochloa oryzicola)
In short: as §4

[29] = test system: windgrass; assay: Test Example 5: herbicidal effect by foliage application, plastic box (Table 20, symbol L); type: in vivo, windgrass (Apera spica-venti); conditions: foliage application
In short: as §1

[30] = test system: green foxtail; assay: Test Example 5: herbicidal effect by foliage application, plastic box (Table 20, symbol G); type: in vivo, green foxtail (Setaria viridis); conditions: foliage application
In short: as §1

[31] = test system: southern crabgrass; assay: Test Example 5: herbicidal effect by foliage application, plastic box (Table 20, symbol F); type: in vivo, southern crabgrass (Digitaria ciliaris); conditions: foliage application
In short: as §1

[32] = AAH 320 g/ha, evaluated three weeks after application
[33] = 320 g/ha, three weeks after application
[34] = amount of applied herbicide 320 g/ha

COCCOCOc1c(C)nn(C)c(=O)c1-c1c(-c2ccc(OC(F)F)cc2)sc2ccc(F)cc12 [2-307]
O: lambsquarters, herbicidal effect (criteria 0-5) [1, 32]: 5 (Herbicidal rate of 90% or more (almost completely withered))
I: wild oat, herbicidal effect (criteria 0-5) [2, 32]: 3 (Herbicidal rate of 40% or more and less than 70%)
herbicidal effect on H: barnyard grass [3]: 5 (Herbicidal rate of 90% or more (almost completely withered))
herbicidal effect on O: lambsquarters [4]: 5 (Herbicidal rate of 90% or more (almost completely withered))
Herbicidal effect on B: Japanese bulrush (grade 0-5) ([5]; 320 g/ha applied herbicide): 3 (Herbicidal rate of 40% or more and less than 70%)
herbicidal effect on J: blackgrass [6]: 2 (Herbicidal rate of 20% or more and less than 40%)
herbicidal effect on K: Italian ryegrass [7]: 1 (Herbicidal rate of 5% or more and less than 20%)
herbicidal effect on L: windgrass [8]: 0 (Herbicidal rate of 5% or less (almost no effect))
herbicidal effect on E: rice flat sedge [9]: 4 (Herbicidal rate of 70% or more and less than 90%)
herbicidal effect on F: southern crabgrass [10]: 4 (Herbicidal rate of 70% or more and less than 90%)
herbicidal effect on D: Chinese sprangletop [11]: 5 (Herbicidal rate of 90% or more (almost completely withered))
herbicidal effect on G: green foxtail [12]: 4 (Herbicidal rate of 70% or more and less than 90%)
herbicidal effect on Q: false cleavers [13]: 0 (Herbicidal rate of 5% or less (almost no effect))
herbicidal effect on R: persian speedwell [14]: 5 (Herbicidal rate of 90% or more (almost completely withered))
herbicidal effect on H: barnyard grass [15]: 3 (Herbicidal rate of 40% or more and less than 70%)
herbicidal effect on P: chickweed [16]: 3 (Herbicidal rate of 40% or more and less than 70%)
N: redroot pigweed, herbicidal effect (criteria 0-5) [17]: 5 (Herbicidal rate of 90% or more (almost completely withered))
R: persian speedwell, herbicidal effect (criteria 0-5) [18, 32]: 5 (Herbicidal rate of 90% or more (almost completely withered))
K: Italian ryegrass, herbicidal effect (criteria 0-5) [19, 32]: 5 (Herbicidal rate of 90% or more (almost completely withered))
herbicidal effect on M: velvetleaf [20]: 0 (Herbicidal rate of 5% or less (almost no effect))
J: blackgrass, herbicidal effect (criteria 0-5) [21, 32]: 4 (Herbicidal rate of 70% or more and less than 90%)
M: velvetleaf, herbicidal effect (criteria 0-5) [22, 32]: 5 (Herbicidal rate of 90% or more (almost completely withered))
P: chickweed, herbicidal effect (criteria 0-5) [23]: 5 (Herbicidal rate of 90% or more (almost completely withered))
H: barnyard grass, herbicidal effect (criteria 0-5) [24, 32]: 5 (Herbicidal rate of 90% or more (almost completely withered))
Herbicidal effect on C: oval-leafed pondweed (grade 0-5) ([25]; 320 g/ha applied herbicide): 0 (Herbicidal rate of 5% or less (almost no effect))
herbicidal effect on I: wild oat [26]: 0 (Herbicidal rate of 5% or less (almost no effect))
herbicidal effect on N: redroot pigweed [27]: 5 (Herbicidal rate of 90% or more (almost completely withered))
Herbicidal effect on A: late watergrass (grade 0-5) ([28]; 320 g/ha applied herbicide): 0 (Herbicidal rate of 5% or less (almost no effect))
L: windgrass, herbicidal effect (criteria 0-5) [29, 32]: 3 (Herbicidal rate of 40% or more and less than 70%)
G: green foxtail, herbicidal effect (criteria 0-5) [30, 32]: 5 (Herbicidal rate of 90% or more (almost completely withered))
F: southern crabgrass, herbicidal effect (criteria 0-5) [31, 32]: 2 (Herbicidal rate of 20% or more and less than 40%)

Cc1nn(C)c(=O)c(-c2c(-c3ccc(OC(F)F)cc3)oc3ccc(F)cc23)c1O [9-031]
herbicidal effect on lambsquarters (O) [1, 33]: 5 (Herbicidal rate of 90% or more (almost completely withered))
herbicidal effect on wild oat (I) [2, 33]: 4 (Herbicidal rate of 70% or more and less than 90%)
Herbicidal effect on H (barnyard grass), foliage application [3]: 5 (Herbicidal rate of 90% or more (almost completely withered))
O: lambsquarters, herbicidal effect grade [4]: 3 (Herbicidal rate of 40% or more and less than 70%)
Herbicidal effect, B: Japanese bulrush [5, 34]: 0 (Herbicidal rate of 5% or less (almost no effect))
J: blackgrass, herbicidal effect grade [6]: 0 (Herbicidal rate of 5% or less (almost no effect))
K: Italian ryegrass, herbicidal effect grade [7]: 5 (Herbicidal rate of 90% or more (almost completely withered))
L: windgrass, herbicidal effect grade [8]: 4 (Herbicidal rate of 70% or more and less than 90%)
Herbicidal effect on E (rice flat sedge), foliage application [9]: 5 (Herbicidal rate of 90% or more (almost completely withered))
F: southern crabgrass, herbicidal effect grade [10]: 4 (Herbicidal rate of 70% or more and less than 90%)
Herbicidal effect on D (Chinese sprangletop), foliage application [11]: 1 (Herbicidal rate of 5% or more and less than 20%)
G: green foxtail, herbicidal effect grade [12]: 4 (Herbicidal rate of 70% or more and less than 90%)
Q: false cleavers, herbicidal effect grade [13]: 3 (Herbicidal rate of 40% or more and less than 70%)
R: persian speedwell, herbicidal effect grade [14]: 5 (Herbicidal rate of 90% or more (almost completely withered))
H: barnyard grass, herbicidal effect grade [15]: 4 (Herbicidal rate of 70% or more and less than 90%)
P: chickweed, herbicidal effect grade [16]: 4 (Herbicidal rate of 70% or more and less than 90%)
herbicidal effect on persian speedwell (R) [18, 33]: 5 (Herbicidal rate of 90% or more (almost completely withered))
herbicidal effect on Italian ryegrass (K) [19, 33]: 5 (Herbicidal rate of 90% or more (almost completely withered))
M: velvetleaf, herbicidal effect grade [20]: 2 (Herbicidal rate of 20% or more and less than 40%)
herbicidal effect on blackgrass (J) [21, 33]: 4 (Herbicidal rate of 70% or more and less than 90%)
herbicidal effect on velvetleaf (M) [22, 33]: 5 (Herbicidal rate of 90% or more (almost completely withered))
herbicidal effect on barnyard grass (H) [24, 33]: 4 (Herbicidal rate of 70% or more and less than 90%)
Herbicidal effect, C: oval-leafed pondweed [25, 34]: 0 (Herbicidal rate of 5% or less (almost no effect))
I: wild oat, herbicidal effect grade [26]: 0 (Herbicidal rate of 5% or less (almost no effect))
N: redroot pigweed, herbicidal effect grade [27]: 5 (Herbicidal rate of 90% or more (almost completely withered))
Herbicidal effect, A: late watergrass [28, 34]: 2 (Herbicidal rate of 20% or more and less than 40%)
herbicidal effect on windgrass (L) [29, 33]: 4 (Herbicidal rate of 70% or more and less than 90%)
herbicidal effect on green foxtail (G) [30, 33]: 5 (Herbicidal rate of 90% or more (almost completely withered))
herbicidal effect on southern crabgrass (F) [31, 33]: 4 (Herbicidal rate of 70% or more and less than 90%)
